Data set [1] deals with Rhesus PDE2A3 (Macaca mulatta, UniProt B3VTJ2). The experiment in a line: PDE2 fluorescence polarization (IMAP FP) inhibition assay, rhesus PDE2A3. Format: biochemical, rhesus macaque.
The target of data set [2] is human PDE2A1 (Homo sapiens (Human), UniProt O00408). The experiment in a line: PDE2 IMAP FP inhibition assay, human PDE2A1 (selectivity panel format). Format: biochemical. In a few lines:
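Enzyme dosed to give about 20% substrate turnover acts for 60 min at room temperature on 50 nM FAM-cAMP plus 1000 nM cGMP (Tris pH 7.2, MgCl2, DTT, Tween-20 buffer). IMAP binding solution then stops the reaction; after 1 h, polarization is measured from parallel and perpendicular fluorescence.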

The target of data set [3] is P-glycoprotein (P-gp, rat Mdr1a) (Rattus norvegicus, UniProt Q6PSM0). The experiment in a line: P-gp transport, experimental BA/AB ratio, rat LLC-Mdr1a. Format: in vitro ADME. The settings on record: LLC-PK1; rat LLC-Mdrla; 1 μM substrate concentration. The text has this: (§1) See Doan et al. “Passive permeability and P-glycoprotein-mediated efflux differentiate central nervous system (CNS) and non-CNS marketed drugs”, J. Pharm. Exper. […] Desirable human BA/AB ratio is less than 2.0. […] See, for example, Desai, et al. Integration of in Silico and in Vitro Tools for Scaffold Optimization during Drug Discovery: Predicting P-glycoprotein Efflux” Mol. Pharmac.

Data set [4] has as its target P-glycoprotein (P-gp) (Homo sapiens (Human), UniProt P08183). Nature of the data set: P-gp transport, experimental BA/AB ratio, human. Format: in vitro ADME. To be noted: LLC-PK1, 1 μM substrate concentration.
Excerpt: as §1

Setting [5] is: Lab A, read-out: Rhesus PDE2 Ki (nM) - Lab A.
Where [6] appears, read: Lab B, read-out: Rhesus PDE2 Ki (nM) - Lab B.
Where [7] appears, read: Lab A, read-out: Human PDE2 Ki (nM) - Lab A.
Setting [8] is: Lab B, read-out: Human PDE2 Ki (nM) - Lab B.

The Ki is a dissociation constant, usually derived from enzyme kinetics or from competition with a known ligand. For orientation: efflux ratio means a quotient of directional permeabilities that is used to spot active efflux.

Read-outs that look alike come from different tables or passages of the source.

Chain of P-glycoprotein (P-gp) (P08183 whole entry): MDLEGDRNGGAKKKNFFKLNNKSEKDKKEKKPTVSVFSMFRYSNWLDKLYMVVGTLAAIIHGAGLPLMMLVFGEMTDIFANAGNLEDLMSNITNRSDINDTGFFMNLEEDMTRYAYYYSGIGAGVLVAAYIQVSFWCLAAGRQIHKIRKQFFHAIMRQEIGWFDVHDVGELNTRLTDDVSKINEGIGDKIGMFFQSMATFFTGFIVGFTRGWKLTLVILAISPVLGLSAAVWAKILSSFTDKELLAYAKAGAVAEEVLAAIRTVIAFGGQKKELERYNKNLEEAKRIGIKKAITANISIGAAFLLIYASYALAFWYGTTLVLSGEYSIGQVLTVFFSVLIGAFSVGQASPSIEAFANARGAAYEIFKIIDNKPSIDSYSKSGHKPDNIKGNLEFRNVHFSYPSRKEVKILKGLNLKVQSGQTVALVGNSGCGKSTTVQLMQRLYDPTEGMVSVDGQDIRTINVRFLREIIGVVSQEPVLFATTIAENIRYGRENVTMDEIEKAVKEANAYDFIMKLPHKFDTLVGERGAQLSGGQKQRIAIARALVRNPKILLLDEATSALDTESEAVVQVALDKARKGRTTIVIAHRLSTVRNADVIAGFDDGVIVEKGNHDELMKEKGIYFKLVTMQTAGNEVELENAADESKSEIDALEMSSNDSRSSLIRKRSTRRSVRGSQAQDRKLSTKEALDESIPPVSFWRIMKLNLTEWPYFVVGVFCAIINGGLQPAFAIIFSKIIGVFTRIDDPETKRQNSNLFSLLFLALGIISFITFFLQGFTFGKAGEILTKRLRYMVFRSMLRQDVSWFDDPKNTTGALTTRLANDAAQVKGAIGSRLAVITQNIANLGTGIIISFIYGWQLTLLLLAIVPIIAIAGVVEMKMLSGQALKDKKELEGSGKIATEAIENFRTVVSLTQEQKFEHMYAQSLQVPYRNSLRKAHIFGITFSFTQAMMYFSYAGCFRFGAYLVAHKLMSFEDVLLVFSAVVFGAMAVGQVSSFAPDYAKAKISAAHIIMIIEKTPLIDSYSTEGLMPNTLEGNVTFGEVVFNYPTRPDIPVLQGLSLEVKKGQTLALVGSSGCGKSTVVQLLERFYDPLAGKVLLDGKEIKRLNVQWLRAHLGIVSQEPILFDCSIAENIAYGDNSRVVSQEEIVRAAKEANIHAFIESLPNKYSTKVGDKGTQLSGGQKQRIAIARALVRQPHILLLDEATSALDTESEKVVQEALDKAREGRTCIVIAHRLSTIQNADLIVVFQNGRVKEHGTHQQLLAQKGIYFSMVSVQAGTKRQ
Chain of P-glycoprotein (P-gp, rat Mdr1a) (Q6PSM0 1-1272): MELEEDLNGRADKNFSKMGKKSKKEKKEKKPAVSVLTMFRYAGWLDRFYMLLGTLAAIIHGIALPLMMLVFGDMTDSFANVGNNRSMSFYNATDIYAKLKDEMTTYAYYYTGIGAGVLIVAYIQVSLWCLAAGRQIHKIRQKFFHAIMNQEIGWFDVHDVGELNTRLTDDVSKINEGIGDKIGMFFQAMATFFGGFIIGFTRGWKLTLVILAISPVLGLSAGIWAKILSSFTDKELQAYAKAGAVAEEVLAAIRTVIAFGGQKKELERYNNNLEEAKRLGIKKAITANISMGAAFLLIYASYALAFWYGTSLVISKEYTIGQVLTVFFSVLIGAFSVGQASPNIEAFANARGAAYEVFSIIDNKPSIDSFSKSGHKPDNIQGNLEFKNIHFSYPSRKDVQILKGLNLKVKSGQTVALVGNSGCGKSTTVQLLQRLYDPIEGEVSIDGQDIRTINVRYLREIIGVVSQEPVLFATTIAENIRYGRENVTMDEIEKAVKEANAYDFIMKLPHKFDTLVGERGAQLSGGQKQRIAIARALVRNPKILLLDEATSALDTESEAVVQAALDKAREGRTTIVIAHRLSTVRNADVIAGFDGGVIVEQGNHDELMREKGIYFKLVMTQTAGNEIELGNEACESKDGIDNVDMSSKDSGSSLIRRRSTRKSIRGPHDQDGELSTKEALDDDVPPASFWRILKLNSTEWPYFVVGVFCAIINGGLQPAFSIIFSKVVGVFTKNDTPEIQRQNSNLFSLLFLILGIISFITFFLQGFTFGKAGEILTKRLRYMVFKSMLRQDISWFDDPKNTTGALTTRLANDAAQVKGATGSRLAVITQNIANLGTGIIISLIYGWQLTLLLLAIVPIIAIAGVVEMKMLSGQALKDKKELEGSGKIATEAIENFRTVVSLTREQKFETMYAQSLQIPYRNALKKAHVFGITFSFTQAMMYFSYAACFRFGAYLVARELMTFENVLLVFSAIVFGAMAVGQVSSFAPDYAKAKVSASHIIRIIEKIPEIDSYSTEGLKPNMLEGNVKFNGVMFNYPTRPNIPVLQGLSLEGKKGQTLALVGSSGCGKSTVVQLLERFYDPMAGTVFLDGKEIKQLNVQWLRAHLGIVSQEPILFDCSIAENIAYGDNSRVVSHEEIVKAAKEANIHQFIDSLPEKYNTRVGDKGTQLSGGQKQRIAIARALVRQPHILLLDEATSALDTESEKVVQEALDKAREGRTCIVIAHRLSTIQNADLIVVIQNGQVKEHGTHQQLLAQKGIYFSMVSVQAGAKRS
Chain of Rhesus PDE2A3 (B3VTJ2 1-941): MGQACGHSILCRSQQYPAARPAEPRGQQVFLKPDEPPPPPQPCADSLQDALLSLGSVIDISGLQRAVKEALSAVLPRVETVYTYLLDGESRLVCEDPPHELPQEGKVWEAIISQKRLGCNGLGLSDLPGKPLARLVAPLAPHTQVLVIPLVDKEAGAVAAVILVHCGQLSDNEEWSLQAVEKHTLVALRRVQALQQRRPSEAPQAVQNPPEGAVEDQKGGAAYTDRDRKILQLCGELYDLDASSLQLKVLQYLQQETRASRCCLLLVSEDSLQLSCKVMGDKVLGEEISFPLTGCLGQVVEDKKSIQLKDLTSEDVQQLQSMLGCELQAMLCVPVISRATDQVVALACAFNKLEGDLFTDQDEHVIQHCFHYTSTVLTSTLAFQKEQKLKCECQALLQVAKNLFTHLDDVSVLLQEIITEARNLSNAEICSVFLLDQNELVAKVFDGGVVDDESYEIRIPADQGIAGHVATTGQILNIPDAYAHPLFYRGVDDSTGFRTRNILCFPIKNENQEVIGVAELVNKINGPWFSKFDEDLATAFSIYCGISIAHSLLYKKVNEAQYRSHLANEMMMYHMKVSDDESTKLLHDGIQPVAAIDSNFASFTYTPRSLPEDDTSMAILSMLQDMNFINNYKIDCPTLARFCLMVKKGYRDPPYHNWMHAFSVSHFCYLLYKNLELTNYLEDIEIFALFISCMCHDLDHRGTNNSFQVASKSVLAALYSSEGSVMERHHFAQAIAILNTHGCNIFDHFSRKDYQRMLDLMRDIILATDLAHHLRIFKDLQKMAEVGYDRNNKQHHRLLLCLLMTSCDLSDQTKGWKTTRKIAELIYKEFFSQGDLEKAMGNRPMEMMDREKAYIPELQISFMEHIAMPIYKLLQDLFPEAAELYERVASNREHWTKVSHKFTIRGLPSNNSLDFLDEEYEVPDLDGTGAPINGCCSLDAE
Chain of human PDE2A1 (O00408 other isoform, or with tags, fused parts or gaps): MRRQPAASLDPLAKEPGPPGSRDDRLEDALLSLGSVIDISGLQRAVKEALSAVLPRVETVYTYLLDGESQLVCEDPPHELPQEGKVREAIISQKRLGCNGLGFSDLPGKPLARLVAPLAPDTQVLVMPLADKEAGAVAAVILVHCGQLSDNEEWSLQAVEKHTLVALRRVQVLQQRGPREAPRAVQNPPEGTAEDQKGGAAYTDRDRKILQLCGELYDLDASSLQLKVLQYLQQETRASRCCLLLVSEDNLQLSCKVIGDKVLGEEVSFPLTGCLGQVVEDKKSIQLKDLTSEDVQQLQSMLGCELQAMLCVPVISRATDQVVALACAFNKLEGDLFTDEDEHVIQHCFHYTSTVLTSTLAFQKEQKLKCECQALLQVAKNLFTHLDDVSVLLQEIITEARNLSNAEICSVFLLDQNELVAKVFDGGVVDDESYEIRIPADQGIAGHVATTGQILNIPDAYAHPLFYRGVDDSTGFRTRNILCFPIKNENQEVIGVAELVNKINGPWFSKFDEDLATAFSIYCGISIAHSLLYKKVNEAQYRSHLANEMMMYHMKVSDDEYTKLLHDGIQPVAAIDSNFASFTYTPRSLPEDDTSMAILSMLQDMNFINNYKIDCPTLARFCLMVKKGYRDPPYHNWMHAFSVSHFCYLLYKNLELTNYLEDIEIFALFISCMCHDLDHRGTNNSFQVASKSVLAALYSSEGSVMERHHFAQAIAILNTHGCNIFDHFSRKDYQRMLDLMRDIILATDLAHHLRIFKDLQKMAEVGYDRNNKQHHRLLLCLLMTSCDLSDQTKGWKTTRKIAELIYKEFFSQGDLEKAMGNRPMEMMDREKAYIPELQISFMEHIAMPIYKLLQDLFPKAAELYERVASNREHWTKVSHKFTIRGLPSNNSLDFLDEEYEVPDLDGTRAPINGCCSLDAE

On to `C[C@@H](NC(=O)c1cc(=O)[nH]c(N(C)C)n1)c1ccc(C(F)(F)F)cc1` [Example 133, 2-(dimethylamino)-6-oxo-N-{(1R)-1-[4-(trifluoromethyl)phenyl]ethyl}-1,6-dihydropyrimidine-4-carboxamide], for which the Ki in data set [1] (setting [5]) was found to be 2.5 nM; in data set [1] (setting [6]), 2.8 nM; in data set [2] (setting [7]), 2 nM; in data set [2] (setting [8]) it was 2.3 nM. In addition, the efflux ratio at 1 μM was found to be 1.8 in data set [3] and 0.5 in data set [4].
As for `O=C(N[C@@H](c1ccc(SC(F)(F)F)cc1)C1CC1)c1cc(=O)[nH]c(N2CCCC2)n1` [Example 27, N-[(R)-cyclopropyl{4-[(trifluoromethyl)sulfanyl]phenyl}methyl]-6-oxo-2-pyrrolidin-1-yl-1,6-dihydropyrimidine-4-carboxamide], the results for the inhibition constant (Ki) in data set [1] (setting [5]) and in data set [2] (setting [7]) were 0.58 nM and 0.21 nM, respectively. Further, the efflux ratio at 1 μM in data set [3] came out at 7; in data set [4], 0.8.
Turning to `C[C@@H](NC(=O)c1cc(=O)[nH]c(N2CCC2)n1)c1ccc(C(F)(F)F)cc1` [Example 10, (R)-2-(azetidin-1-yl)-6-oxo-N-(1-(4-(trifluoromethyl)phenyl)ethyl)-1,6-dihydropyrimidine-4-carboxamide], the Ki in data set [1] (setting [5]) is 8.5 nM; in data set [2] (setting [7]), 8.2 nM. Moreover, the figures for the efflux ratio at 1 μM in data set [3] and in data set [4] were 3.1 and 0.5, respectively.
Take `CN(C)c1nc(C(=O)N[C@@H](c2ccc(OC(F)F)c(F)c2)C(C)(C)C)cc(=O)[nH]1` [Example 54, N-{(1R)-1-[4-(difluoromethoxy)-3-fluorophenyl]-2,2-dimethylpropyl}-2-(dimethylamino)-6-oxo-1,6-dihydropyrimidine-4-carboxamide]: the values for the Ki in data set [1] (setting [6]) and in data set [2] (setting [8]) were 0.32 nM and 0.38 nM, respectively. Further, the efflux ratio at 1 μM in data set [3] is 4.8; in data set [4], 1.4.
In the same order, the values of `CC(C)(C)[C@@H](NC(=O)c1cc(=O)[nH]c(N2CC[C@H](F)C2)n1)c1ccc(C(F)(F)F)cc1` [Example 169, N-{(1R)-2,2-dimethyl-1-[4-(trifluoromethyl)phenyl]propyl}-2-[(3S)-3-fluoropyrrolidin-1-yl]-6-oxo-1,6-dihydropyrimidine-4-carboxamide] are 0.14 nM, 0.17 nM, 9.8 and 2.5.
Regarding `CC[C@@H](NC(=O)c1cc(=O)[nH]c(N(C)C)n1)c1ccc(SC(F)(F)F)c(F)c1` [Example 98, 2-(dimethylamino)-N-[(1R)-1-{3-fluoro-4-[(trifluoromethyl)sulfanyl]phenyl}propyl]-6-oxo-1,6-dihydropyrimidine-4-carboxamide], the values for the inhibition constant Ki in data set [1] (setting [5]) and in data set [2] (setting [7]) were 0.54 nM and 0.23 nM, respectively. The efflux ratio at 1 μM was 3 in data set [3] and 0.4 in data set [4].
Consider `CC[C@@H](NC(=O)c1cc(=O)[nH]c(N(C)C)n1)c1ccc(C(F)(F)F)c(F)c1` [Example 106, 2-(dimethylamino)-N-{(1R)-1-[3-fluoro-4-(trifluoromethyl)phenyl]propyl}-6-oxo-1,6-dihydropyrimidine-4-carboxamide], for which the figures for the inhibitory constant (Ki) in data set [1] (setting [5]), in data set [1] (setting [6]) and in data set [2] (setting [8]) were 0.81 nM, 1.4 nM and 1.3 nM, respectively. Moreover, the efflux ratio at 1 μM is 3.5 in data set [3] and 0.5 in data set [4].
With `CN(C)c1nc(C(=O)N[C@@H](c2ccc(C(F)F)cc2F)C(C)(C)C)cc(=O)[nH]1` [Example 73, N-{(1R)-1-[4-(difluoromethyl)-2-fluorophenyl]-2,2-dimethylpropyl}-2-(dimethylamino)-6-oxo-1,6-dihydropyrimidine-4-carboxamide], the Ki in data set [1] (setting [6]) was determined as 0.26 nM; in data set [2] (setting [8]), 0.17 nM. In addition, the figures for the efflux ratio at 1 μM in data set [3] and in data set [4] were 6.9 and 1.2, respectively.
Consider `C[C@@H](NC(=O)c1cc(=O)[nH]c(N2Cc3ccncc3C2)n1)c1ccc(C(F)(F)F)cc1` [Example 160, 2-(1,3-dihydro-2H-pyrrolo[3,4-c]pyridin-2-yl)-6-oxo-N-{(1R)-1-[4-(trifluoromethyl)phenyl]ethyl}-1,6-dihydropyrimidine-4-carboxamide], for which the values for the Ki in data set [1] (setting [5]) and in data set [2] (setting [7]) were 1.6 nM and 1 nM, respectively. Moreover, the efflux ratio at 1 μM in data set [3] is 28.8; in data set [4] it was 17.1.
In the same order, the values of `C[C@@H](NC(=O)c1cc(=O)[nH]c(N)n1)c1ccc(SC(F)(F)F)cc1` [Example 145, 2-amino-6-oxo-N-[(1R)-1-{4-[(trifluoromethyl)sulfanyl]phenyl}ethyl]-1,6-dihydro-pyrimidine-4-carboxamide] are 35 nM, 23 nM, 28.9 and 3.2.
In the case of `CN(C)c1nc(C(=O)N[C@@H](c2ccc(C3CC3)c(F)c2)C(C)(C)C)cc(=O)[nH]1` [Example 58, N-[(1R)-1-(4-cyclopropyl-3-fluorophenyl)-2,2-dimethylpropyl]-2-(dimethylamino)-6-oxo-1,6-dihydropyrimidine-4-carboxamide], the results for the inhibition constant (Ki) in data set [1] (setting [6]) and in data set [2] (setting [8]) were 0.1 nM and 0.03 nM, respectively. The efflux ratio at 1 μM in data set [3] was determined as 4.7; in data set [4], 1.3.
`O=C(N[C@@H](c1ccc(C(F)(F)F)cc1)C1CC1)c1cc(=O)[nH]c(N2CCCC2)n1` [Example 26]: the figures for the Ki in data set [1] (setting [5]) and in data set [2] (setting [7]) were 1.4 nM and 0.34 nM, respectively. Further, the efflux ratio at 1 μM in data set [3] was 4.5; in data set [4], 0.9.
`CN(C)c1nc(C(=O)N[C@@H](c2ccc(S(F)(F)(F)(F)F)cc2)C2CC2)cc(=O)[nH]1` [Example 4, (R)—N-(cyclopropyl(4-(pentafluoro-λ^6-sulfanyl)phenyl)methyl)-2-(dimethylamino)-6-oxo-1,6-dihydropyrimidine-4-carboxamide]: the inhibition constant (Ki) stood at 1.2 nM in data set [1] (setting [6]) and 1 nM in data set [2] (setting [8]). In addition, the efflux ratio at 1 μM stood at 3.1 in data set [3] and 0.6 in data set [4].
Consider `C[C@@H](NC(=O)c1cc(=O)[nH]c(N(C)C)n1)c1ccc(S(F)(F)(F)(F)F)cc1` [Example 89, 2-(dimethylamino)-6-oxo-N-{(1R)-1-[4-(pentafluoro-λ^6-sulfanyl)phenyl]ethyl}-1,6-dihydropyrimidine-4-carboxamide], for which the inhibitory constant (Ki) worked out at 1.1 nM in data set [1] (setting [5]) and 0.41 nM in data set [2] (setting [7]). Also, the figures for the efflux ratio at 1 μM in data set [3] and in data set [4] were 2.9 and 0.4, respectively.
In the same order, the values of `CC(C)[C@@H](NC(=O)c1cc(=O)[nH]c(N)n1)c1ccc(SC(F)(F)F)cc1` [Example 154, 2-amino-N-[(1R)-2-methyl-1-{4-[(trifluoromethyl)sulfanyl]phenyl}propyl]-6-oxo-1,6-dihydropyrimidine-4-carboxamide] are 18 nM, 9.9 nM, 24.7 and 10.4.
Consider `CC(C)[C@@H](NC(=O)c1cc(=O)[nH]c(N(C)C)n1)c1ccc(C(F)(F)F)c(F)c1` [Example 112, 2-(dimethylamino)-N-{(1R)-1-[3-fluoro-4-(trifluoromethyl)phenyl]-2-methylpropyl}-6-oxo-1,6-dihydropyrimidine-4-carboxamide], for which the Ki came out at 0.27 nM in data set [1] (setting [5]), 0.44 nM in data set [1] (setting [6]) and 0.55 nM in data set [2] (setting [8]). Further, the results for the efflux ratio at 1 μM in data set [3] and in data set [4] were 4.7 and 0.7, respectively.

For the origin of these results see patent US10285989B2, “Pyrimidinone amide compounds as PDE2 inhibitors” (Merck Sharp & Dohme Corp., priority 2015, dated 2019).
